Bridge positions count the residues as written; N and C are the ends. Ends that are not written are not given here. Peptide text beside a SMILES is read from it.
How the values were obtained:
[1] = biological target: T1, αvβ5 integrin (Homo sapiens, UniProt P06756+P18084); test: Panning and binding of peptide-displaying phage on αvβ5 integrin; parameters: The αvβ3, αvβ5 and α5β1 integrins were isolated from human placental extracts; from tissue; host or cells: human placenta
Description: (§1) In addition, most of the phage-binding activity in the αvβ3 preparation was captured into microliter wells coated with antibodies against the αv or β3 subunits as described previously (Koivunen et al., J. Biol. Chem., 268:20205–10 (1993). The αIIbβ3 integrin was isolated from outdated platelets (Pytela et al., Science, 231:1559–1562 (1986)).
(§2) Peptide libraries were constructed in fuse 5 vector (Scott and Smith, Science 249:386–390 (1990)) as described previously (Koivunen et al., J. Cell Biol., 124:373–380 (1994). The CX5C, CX6C, CX7C and CX9 [SEQ ID NOs:39–42, respectively] libraries were prepared using synthetic oligonucleotides containing core sequences TGT(NNK)5TGT, TGT(NNK)6TGT, TGT(NNK)7TGT and TGT(NNK)9 [SEQ ID NOS:43–46, respectively] (N=equal molar mixture of A, C, G, T; K=G or T), respectively. The oligonucleotides were made double-stranded by PCR amplification with 5 cycles, purified and ligated to the N-terminus of pIII gene of fuse 5 vector. […]
(§3) Binding of individual cloned phage to integrins was studied in microliter wells as described in Koivunen et al., J. Cell. […] Phage that were bound were determined by their ability to infect F-pilus positive K91kan bacteria. Bacteria were grown overnight in microliter wells in the presence of tetracycline and the absorbance indicative of bacterial growth was read at 600 nm with an ELISA plate reader.

[2] = biological target: T1, αvβ5 integrin; test: Inhibition of peptide-displaying phage binding to αvβ5 integrin by synthetic peptides; parameters: The αvβ3, αvβ5 and α5β1 integrins were isolated from human placental extracts; from tissue; host or cells: human placenta; conditions: more potent than *CRGDC*; FIG. 10
Experimental: Phage containing the […] [SEQ ID NO:10] sequence were incubated for 1 hour in integrin-coated wells in the presence of the competing peptides or dimethyl sulfoxide solvent as a control. The bound phage were determined as described herein.
as §1
Binding of individual cloned phage to integrins was studied in microliter wells as described in Koivunen et al., J. Cell. Biol., 124:373–380 (1994). Phage binding to α5β1 and αvβ3 were assayed in TBS buffer containing 1% BSA and 1 mM MnCl2 and binding to αvβ5 in the presence of 1 mM CaCl2. Phage that were bound were determined by their ability to infect F-pilus positive K91kan bacteria. Bacteria were grown overnight in microliter wells in the presence of tetracycline and the absorbance indicative of bacterial growth was read at 600 nm with an ELISA plate reader.

[3] = biological target: αvβ3 integrin (Homo sapiens, UniProt P05106+P06756); test: Panning and binding of peptide-displaying phage on αvβ3 integrin; parameters: The αvβ3, αvβ5 and α5β1 integrins were isolated from human placental extracts; from tissue; host or cells: human placenta; conditions: phage-displayed sequence
Description: as §1, §2, §3

[4] = Precipitation behaviour of the peptide in solution; assay type: physicochemical; conditions: neutral pH
[5] = biological target: T2, α5β1 integrin (Homo sapiens, UniProt P05556+P08648); test: Panning and binding of peptide-displaying phage on α5β1 integrin; conditions: phage-displayed sequence
T2 construct: The αvβ3, αvβ5 and α5β1 integrins were isolated from human placental extracts; from tissue; host or cells: human placenta
Description: as §1
Peptide libraries were constructed in fuse 5 vector (Scott and Smith, Science 249:386–390 (1990)) as described previously (Koivunen et al., J. Cell Biol., 124:373–380 (1994). The CX5C, CX6C, CX7C and CX9 [SEQ ID NOs:39–42, respectively] libraries were prepared using synthetic oligonucleotides containing core sequences TGT(NNK)5TGT, TGT(NNK)6TGT, TGT(NNK)7TGT and TGT(NNK)9 [SEQ ID NOS:43–46, respectively] (N=equal molar mixture of A, C, G, T; K=G or T), respectively. The oligonucleotides were made double-stranded by PCR amplification with 5 cycles, purified and ligated to the N-terminus of pIII gene of fuse 5 vector. The CX5C, CX6C, CX7C and CX9 [SEQ ID NOS:39–42, respectively] vectors were transfected into MC1061 cells using 16, 60, 263 and 250 electroporations, respectively. Bacteria were cultured for 24 hours in the presence of 20 μg/ml of tetracycline, and phage were collected from the supernatant by precipitation twice with polyethylene glycol. The phage pellets were dissolved at approximately 10^13 transducing units (TU)/ml in TBS buffer containing 0.02% NaN3 and stored at 4° C. The yields of the CX5C, CX6C, CX7C and CX9 [SEQ ID NOS:39–42, respectively] primary libraries were 3.5×10^8, 1.1×10^9, 4.5×10^5 and 3.5×10^8 clones, respectively. […]
as §3

T1 sequence (P06756 31-889 limits assumed): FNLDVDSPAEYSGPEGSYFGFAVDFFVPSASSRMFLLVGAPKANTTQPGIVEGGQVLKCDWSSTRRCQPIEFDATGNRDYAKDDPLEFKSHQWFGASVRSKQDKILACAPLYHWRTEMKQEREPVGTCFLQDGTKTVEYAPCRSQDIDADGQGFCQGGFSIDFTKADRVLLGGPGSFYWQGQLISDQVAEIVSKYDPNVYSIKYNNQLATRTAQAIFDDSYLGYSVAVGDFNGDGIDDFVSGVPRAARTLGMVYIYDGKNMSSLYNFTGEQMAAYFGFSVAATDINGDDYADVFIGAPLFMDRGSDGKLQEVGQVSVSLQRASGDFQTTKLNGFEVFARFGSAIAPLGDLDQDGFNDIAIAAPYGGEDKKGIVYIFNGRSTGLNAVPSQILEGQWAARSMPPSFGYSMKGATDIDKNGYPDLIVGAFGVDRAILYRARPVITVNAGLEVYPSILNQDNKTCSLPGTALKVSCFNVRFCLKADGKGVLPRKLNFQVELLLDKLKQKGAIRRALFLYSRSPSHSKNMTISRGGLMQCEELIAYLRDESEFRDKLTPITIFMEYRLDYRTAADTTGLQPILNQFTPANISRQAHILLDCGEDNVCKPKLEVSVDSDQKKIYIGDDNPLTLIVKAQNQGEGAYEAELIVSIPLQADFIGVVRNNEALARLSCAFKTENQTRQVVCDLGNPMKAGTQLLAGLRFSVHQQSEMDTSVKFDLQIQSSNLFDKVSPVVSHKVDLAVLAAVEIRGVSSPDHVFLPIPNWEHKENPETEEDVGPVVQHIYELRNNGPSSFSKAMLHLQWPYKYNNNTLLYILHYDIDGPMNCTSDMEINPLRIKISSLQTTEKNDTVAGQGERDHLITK
T1 sequence (P06756 891-1048 partner limits assumed): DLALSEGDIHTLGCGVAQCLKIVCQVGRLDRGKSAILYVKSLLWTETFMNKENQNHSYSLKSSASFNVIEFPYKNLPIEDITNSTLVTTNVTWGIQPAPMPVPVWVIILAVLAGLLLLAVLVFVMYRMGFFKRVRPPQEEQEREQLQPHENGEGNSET
T1 sequence (P18084 24-799): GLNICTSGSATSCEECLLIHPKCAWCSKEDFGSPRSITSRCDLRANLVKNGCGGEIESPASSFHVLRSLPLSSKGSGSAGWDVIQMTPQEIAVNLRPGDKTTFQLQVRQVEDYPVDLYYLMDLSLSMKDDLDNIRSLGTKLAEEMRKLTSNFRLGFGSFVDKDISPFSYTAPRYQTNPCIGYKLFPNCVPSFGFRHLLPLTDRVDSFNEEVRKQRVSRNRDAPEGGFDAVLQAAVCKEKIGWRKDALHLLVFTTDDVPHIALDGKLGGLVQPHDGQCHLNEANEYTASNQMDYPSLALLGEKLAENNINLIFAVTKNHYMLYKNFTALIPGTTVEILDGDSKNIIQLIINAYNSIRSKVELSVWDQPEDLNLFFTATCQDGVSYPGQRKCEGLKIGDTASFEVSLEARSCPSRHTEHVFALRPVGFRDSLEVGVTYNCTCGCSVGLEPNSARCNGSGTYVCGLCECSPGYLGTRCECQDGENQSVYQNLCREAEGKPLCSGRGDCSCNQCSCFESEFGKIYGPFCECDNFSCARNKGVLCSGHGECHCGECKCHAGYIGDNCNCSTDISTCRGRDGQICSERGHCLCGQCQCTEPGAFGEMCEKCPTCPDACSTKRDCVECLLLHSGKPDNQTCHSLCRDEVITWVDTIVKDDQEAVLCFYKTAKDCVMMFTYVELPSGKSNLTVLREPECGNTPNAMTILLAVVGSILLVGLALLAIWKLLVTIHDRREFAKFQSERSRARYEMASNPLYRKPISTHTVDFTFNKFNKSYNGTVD
T2 sequence (P08648 42-894 limits assumed): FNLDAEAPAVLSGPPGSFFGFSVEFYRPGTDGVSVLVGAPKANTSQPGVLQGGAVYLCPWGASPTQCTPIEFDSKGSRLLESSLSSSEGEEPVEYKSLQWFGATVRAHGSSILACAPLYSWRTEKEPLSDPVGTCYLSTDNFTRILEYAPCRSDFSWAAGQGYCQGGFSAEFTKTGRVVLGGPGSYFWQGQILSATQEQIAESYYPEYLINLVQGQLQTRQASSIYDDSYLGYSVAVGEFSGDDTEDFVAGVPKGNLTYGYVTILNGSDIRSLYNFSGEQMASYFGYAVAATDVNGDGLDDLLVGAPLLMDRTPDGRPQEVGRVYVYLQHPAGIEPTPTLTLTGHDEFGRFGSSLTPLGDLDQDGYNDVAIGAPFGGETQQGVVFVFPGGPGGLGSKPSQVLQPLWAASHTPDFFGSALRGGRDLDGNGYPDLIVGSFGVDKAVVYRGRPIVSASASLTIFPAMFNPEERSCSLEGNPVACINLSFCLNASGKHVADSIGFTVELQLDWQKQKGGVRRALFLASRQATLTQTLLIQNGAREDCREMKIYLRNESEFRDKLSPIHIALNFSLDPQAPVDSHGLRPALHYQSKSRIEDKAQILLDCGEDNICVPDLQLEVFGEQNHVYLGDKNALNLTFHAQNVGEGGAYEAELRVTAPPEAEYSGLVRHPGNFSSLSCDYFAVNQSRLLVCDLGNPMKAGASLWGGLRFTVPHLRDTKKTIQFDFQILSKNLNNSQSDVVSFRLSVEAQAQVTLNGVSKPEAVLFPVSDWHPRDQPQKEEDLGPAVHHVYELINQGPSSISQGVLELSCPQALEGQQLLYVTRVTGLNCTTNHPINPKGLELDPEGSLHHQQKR
T2 sequence (P08648 895-1049 partner limits assumed): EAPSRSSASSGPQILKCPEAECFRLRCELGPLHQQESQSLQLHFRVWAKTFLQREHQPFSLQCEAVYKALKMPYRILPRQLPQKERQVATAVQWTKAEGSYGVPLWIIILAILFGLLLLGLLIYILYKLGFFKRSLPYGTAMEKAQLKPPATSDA
T2 sequence (P05556 21-798): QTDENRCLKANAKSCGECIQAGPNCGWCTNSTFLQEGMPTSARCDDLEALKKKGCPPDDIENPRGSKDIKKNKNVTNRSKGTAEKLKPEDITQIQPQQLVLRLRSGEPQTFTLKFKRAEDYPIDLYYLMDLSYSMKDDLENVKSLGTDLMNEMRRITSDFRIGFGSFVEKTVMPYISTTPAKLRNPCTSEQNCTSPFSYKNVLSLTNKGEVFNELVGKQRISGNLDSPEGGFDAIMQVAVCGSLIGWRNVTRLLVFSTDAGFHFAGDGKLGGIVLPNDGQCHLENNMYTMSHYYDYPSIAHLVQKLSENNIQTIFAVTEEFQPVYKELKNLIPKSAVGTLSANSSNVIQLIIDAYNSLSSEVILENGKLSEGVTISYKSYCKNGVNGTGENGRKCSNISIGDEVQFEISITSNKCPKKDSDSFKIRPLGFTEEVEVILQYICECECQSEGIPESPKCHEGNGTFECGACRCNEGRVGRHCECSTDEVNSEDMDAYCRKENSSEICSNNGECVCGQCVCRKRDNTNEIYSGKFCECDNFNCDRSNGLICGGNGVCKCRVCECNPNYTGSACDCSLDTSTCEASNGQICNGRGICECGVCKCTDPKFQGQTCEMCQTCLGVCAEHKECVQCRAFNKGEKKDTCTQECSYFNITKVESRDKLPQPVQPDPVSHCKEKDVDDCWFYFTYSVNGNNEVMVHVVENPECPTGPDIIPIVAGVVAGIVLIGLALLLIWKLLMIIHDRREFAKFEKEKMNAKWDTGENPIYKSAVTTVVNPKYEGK
Sequence of αvβ3 integrin (P06756 31-889 limits assumed): as the sequence (P06756 31-889 limits assumed) above
Sequence of αvβ3 integrin (P06756 891-1048 partner limits assumed): as the sequence (P06756 891-1048 partner limits assumed) above
Sequence of αvβ3 integrin (P05106 27-788): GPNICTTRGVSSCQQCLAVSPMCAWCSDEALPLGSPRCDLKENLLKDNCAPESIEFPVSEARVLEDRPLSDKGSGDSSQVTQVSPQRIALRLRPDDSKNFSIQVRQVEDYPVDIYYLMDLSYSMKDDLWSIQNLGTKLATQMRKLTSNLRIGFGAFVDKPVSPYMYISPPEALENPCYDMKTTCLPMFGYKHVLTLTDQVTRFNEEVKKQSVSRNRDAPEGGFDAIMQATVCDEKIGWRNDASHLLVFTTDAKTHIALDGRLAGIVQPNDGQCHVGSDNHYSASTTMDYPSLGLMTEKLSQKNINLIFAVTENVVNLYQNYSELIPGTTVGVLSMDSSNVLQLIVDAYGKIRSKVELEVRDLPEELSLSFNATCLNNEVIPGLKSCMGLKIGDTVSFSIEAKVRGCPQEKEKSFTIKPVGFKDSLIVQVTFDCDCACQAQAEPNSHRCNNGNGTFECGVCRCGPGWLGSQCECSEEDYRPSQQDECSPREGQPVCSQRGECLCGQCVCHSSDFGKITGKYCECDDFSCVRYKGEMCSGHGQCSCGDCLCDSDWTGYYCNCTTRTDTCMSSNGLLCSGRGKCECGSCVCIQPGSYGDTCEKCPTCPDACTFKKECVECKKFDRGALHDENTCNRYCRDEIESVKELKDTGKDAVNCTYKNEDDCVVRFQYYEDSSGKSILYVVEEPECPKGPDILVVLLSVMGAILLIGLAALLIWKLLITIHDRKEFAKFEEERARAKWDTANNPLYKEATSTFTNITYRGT

In the case of C[C@H](N)C(=O)N[C@H]1CSSC[C@@H](C(=O)NCC(=O)O)NC(=O)[C@H](Cc2ccccc2)NC(=O)[C@@H]2CSSC[C@H](NC(=O)[C@H](CC(=O)O)NC1=O)C(=O)N[C@@H](CCCNC(=N)N)C(=O)NCC(=O)N[C@@H](CC(=O)O)C(=O)N2 (H-ACDCRGDCFCG-OH; disulfide 2-10, 4-8), the “integrin preference of phage expressing the peptide” value ([1]; phage attachment experiments) is reported as “bound preferentially to the αvβ5 integrin”, the “binding of peptide-displaying phage to the αvβ5 integrin” value ([1]; phage-displayed sequence) is reported as “bound strongly” and the “potency in inhibiting binding of RGD-containing phage to αvβ5 relative to *CRGDC*” value [2] is reported as 10 fold.
In the case of “A*CPSRLDSPC*G (ACPSRLDSPCG; disulfide 2-10 (inferred))”, the “binding of peptide-displaying phage to the αvβ3 integrin” value [3] is reported as “bound to αvβ3” and the “precipitation of the peptide” value [4] is reported as “tendency of the peptide precipitate at neutral pH”.
With GACRRETAWACGA the “binding of peptide-displaying phage to the α5β1 integrin” value [5] was “selectively bind”.

Source: patent US7067619B2, “Integrin-binding peptides” (La Jolla Cancer Research Foundation, priority 1993, dated 2006)
